The source of these data is patent US20240133884A1, “COMPOSITIONS AND METHODS FOR DETECTING TRYPANOSOMA CRUZI INFECTION” (University of Georgia Research Foundation, Inc., priority 2022, published 2024).

One data set concerns T. cruzi (Brazil strain). The conditions noted are these: cited from earlier work.
The conditions of data set [1]: in vivo.
For data set [2], the system named is T. cruzi intracellular amastigotes. The data set can be described thus: In vitro anti-T. cruzi amastigote growth inhibition assay (tdTomato fluorescence, 72 hours, Vero cells). In kind it is cell-based, Trypanosoma cruzi. Particulars: for in vitro activity against T. cruzi: in words. Here is the method:
(§1) The in vitro anti-T. cruzi amastiogote activity assay was performed and optimized based on the protocol described previously (Canavaci, et al., PLoS neglected tropical diseases 4, e740 (2010)). The change in tdTomato fluorescence intensity was determined as a measurement of growth over 72 hours of culture. For assaying drug effects on extracellular amastigotes, trypomastigotes were collected from infected Vero cell cultures and converted in acidic media as previously described (Tomlinson, et al., Parasitology 110 (Pt 5), 547-554 (1995)). Amastigotes (50,000/well) were incubated with 2-fold serial dilutions of compounds for 48 hours. The ATP production was used as an indication of growth in this case, and was measured by ATPlite Luminescence ATP Detection Assay System (PerkinElmer). Both fluorescence and luminescence were read using a BioTek Synergy Hybrid Multi-Mode reader equipped with the software Gene5 v 2.0 (BioTek). The dose-response curve was generated by […] analysis with GraphPad Prism v9.4.0 (GraphPad Software). IC50 was determined as the drug concentration that was required to inhibit 50% of growth compared to that of parasites with no drug exposure.

The test system of a further data set is CPSF3. The conditions noted are these: T. b. brucei; cited from earlier work.
Data set [3] concerns T. cruzi extracellular amastigotes. The data set can be described thus: Extracellular amastigote assay (ATPlite ATP production, 48 hours). In kind it is cell-based, Trypanosoma cruzi. Particulars: relative to parent ester (FIG. 2A). Here is the method:
as §1
In general terms: ATP-based viability assays read luminescence as a measure of living cells.

The nature of data set [4]: High dose 7-day toxicology studies in rats. In kind it is in vivo. The conditions noted are these: high dose 7-day toxicology studies, oral.
For data set [5], the system named is mammalian enzymes, receptors and ion channels. The data set can be described thus: Safety pharmacology: affinity for a broad array of mammalian enzymes, receptors and ion channels. Type of data set: binding.
The next data set can be described thus: Standard Ames study. In kind it is cell-based.
The next data set deals with cytochrome P450 enzymes. The data set can be described thus: Inhibition of representative cytochrome P450 enzymes. The conditions noted are these: 10 uM. Type of data set: in vitro ADME.
The test system of data set [6] is T. cruzi. The conditions noted are these: T. cruzi-infected NHPs; cited from earlier work.
Data set [7] deals with T. cruzi (Colombiana strain). In words: BNZ prophylaxis in mice (bioluminescence imaging, T-cell phenotyping, tissue qPCR). Type of data set: in vivo, Trypanosoma cruzi. Particulars: for luciferase signal: 100 mg/kg twice weekly. As for the experimental part: For the studies in mice, female mice, 8-12 weeks old were used for infections throughout the study. Sample sizes were determined based upon knowledge of heterogeneity in parasite burden during T. cruzi infection and published reports using similar experimental strategies. Data collected were included if productive T. cruzi infection was established (visualized by luciferase imaging or flow cytometry by detection of T. cruzi-tetramer specific CD8^+ T cells). The investigators were not blinded during the collection or analysis of data and mice were randomly assigned to treatment groups prior to the start of each experiment.
C57BL/6J (Stock No:000664) mice (C57BL/6 wild-type) were purchased from The Jackson Laboratory (Bar Harbor, ME) and C57BL/6J-IFN-gamma knockout mice (also known as B6.129S7-Ifngtm1 Ts/J; The Jackson Laboratory stock No 002287) were bred in-house at the University of Georgia Animal Facility. All the animals were maintained in the University of Georgia Animal Facility under specific pathogen-free conditions. T. cruzi tissue culture trypomastigotes of the Colombiana strain co-expressing firefly luciferase and tdTomato reporter proteins, generated as described previously (Sanchez-Valdez, et al., eLife 7 (2018), Bustamante, et al., Sci Transl Med. 12(567) 2020)), were maintained through passage in Vero cells (American Type Culture Collection (Manassas, VA)) cultured in RPMI 1640 medium with 10% fetal bovine serum at 37° C. in an atmosphere of 5% CO2. Mice were infected intraperitoneally with 10^3 tissue culture trypomastigotes of T. cruzi. This study was carried out in strict accordance with the Public Health Service Policy on Humane Care and Use of Laboratory Animals and Association for Assessment and Accreditation of Laboratory Animal Care accreditation guidelines. The protocol was approved by the University of Georgia Institutional Animal Care and Use Committee.
Mice were treated with benznidazole twice weekly at a 100 mg/kg/day and infected midway during the 3rd week of treatment (FIG. 8A). Benznidazole (BNZ—Elea Phoenix, Buenos Aires, Argentina) was prepared by pulverization of tablets followed by suspension in an aqueous solution of 1% sodium carboxymethylcellulose with 0.1% Tween 80 and delivered orally by gavage at a concentration dosage of 100 mg/kg of body weight. Each mouse received 0.2 ml of this suspension. Luciferase-expressing parasites were quantified in mice by bioluminescent detection. Mice were injected intraperitoneally with D-luciferin (150 mg/kg; PerkinElmer, Waltham, MA) and anesthetized using 2.5% (vol/vol) gaseous isofluorane in oxygen prior to imaging on an IVIS Lumina II imager (Xenogen, Alameda, CA) for an exposure time of 5 minutes, as previously described (Canavaci, et al., PLoS neglected tropical diseases 4(7):e740 (2010)). Quantification of bioluminescence and data analysis was performed using Aura Imaging Software version 4.0.7 (Spectral Instruments Imaging, Tucson, AZ).
Whole blood was incubated with a major histocompatibility complex I (MHC I) tetramer containing the T. cruzi transialidase TSKB20 peptide (ANYKFTLV (SEQ ID NO:124)/Kb) labeled with BV421 (Tetramer Core Facility at Emory University, Atlanta, GA) and the following labeled antibodies: anti-CD8 FITC, anti-CD4 APC EF780, anti-CD127 PE (BD Bioscience, San Jose, CA). At least 500,000 cells were acquired using a CyAn ADP flow cytometer (Beckman Coulter, Hialeah, Florida) and analyzed with FlowJo software v10.6.1 (Treestar, Inc., Ashland, OR).
[…]

The test system of data set [8] is T. cruzi. The data set can be described thus: BNZ prophylaxis / treatment in kennel dogs (multiplex serology, blood PCR). In kind it is in vivo, Trypanosoma cruzi. Particulars: for impact of prophylaxis on new infections: high intensity transmission setting. The source says:
For studies in dogs, a small network of kennels was formed in central and south Texas with a history of triatomine vector occurrence and canine Chagas disease with owners who were willing to participate in the study. Kennels are identified through (i) canine patients with Chagas disease presenting to the cardiology unit at the TAMU VMTH and (ii) the TAMU Kissing Bug Community Science program, in which many dog owners submit triatomines collected from large kennel environments. At these large kennels, dogs are primarily bred and trained to aid hunting parties. Approximately 40-80 dogs reside within each kennel, and the predominant breeds include Belgian Malinois, Brittany spaniels, English pointers, German shorthaired pointers, Labrador retrievers, and hound dogs. Dogs >3 months of age, including males and females, were eligible for enrollment. Dogs identified after blood screening as seronegative based on multiplex serology and PCR-negative were randomly assigned to treatment groups. Neither the investigators, private veterinarian providing care to the dogs in the field, nor the dog owners were blinded to the treatment groups and no placebo was given to control dogs. Informed consent was obtained from dog owners prior to their participation, and this study was approved by the Texas A&M University Institutional Committee on Animal Use and Care and the Clinical Research Review Committee.
The limit of detection was set at the lowest standard of 0.0017 parasite equivalents per 50 ng of DNA. For detection of T. cruzi infection in dogs, DNA was extracted from 250 uL of the buffy coat fraction of EDTA-treated blood using the E.Z.N.A Tissue DNA kit (Omega Bio-Tek, Norcross, GA, USA) according to the manufacturer's protocol except 50 μL of elution buffer was used. T. cruzi-negative controls (phosphate buffered saline) were included in the DNA extractions. Samples were tested using qPCR for the presence of T. cruzi satellite DNA using the Cruzi 1/2 primer set and Cruzi 3 probe in a real-time assay, which amplifies a 166-bp segment of a repetitive nuclear DNA (Piron, et al., Acta tropica. 103(3):195-200 (2007), Cummings & Tarleton, Molecular and biochemical parasitology 129(1):53-9 (2003)) as previously described (Meyers, et al., PLoS neglected tropical diseases 11(8) 2017)). A sample was considered T. cruzi-positive if the Ct value was <35 (Curtis-Robles, et al., Vet Parasitol Reg Stud Reports 12:85-8 (2018)).
The 67 animals considered infection-negative were randomly assigned to either a control (no therapy) or a prophylactic group, which received twice weekly doses of BNZ at a level of not less than 10 mg/kg. This dosage is approximately the normal daily dose previously used (mostly ineffectively) to attempt drug-cure in dogs (Guedes, et al., Acta tropica. 84(1):9-17 (2002), Santos, et al., The Journal of antimicrobial chemotherapy. 67(8):1987-95 (2012), Cunha, et al., Experimental parasitology. 204:107711 (2019)). Dogs in these groups were then re-sampled 10-12 weeks (considered the midpoint of the transmission season) and ˜24 weeks (end of season).

[9] abbreviates: dog BEHE4, 30 mg/kg twice a week, 24 week sample point.

On to `O=C(Nc1ccc2c(c1)B(O)OC2)c1ccc(F)cc1C(F)(F)F` [AN4169], for which the cure of mice in the data set on T. cruzi (Brazil strain) (mice infected with T. cruzi Brazil strain) is 100%. Moreover, the “therapeutic margin in rodent tolerability studies” value in data set [1] is recorded as “insufficient therapeutic margin”.

For the compound `CC(C)[C@H](NC(=O)c1ccc2c(c1)B(O)OC2)C(=O)OCc1ccccc1` [AN10443], the “metabolic stability in mouse S9 liver fraction assay” value is “good metabolic stability”. Moreover, the “in vitro activity against T. cruzi” value in [2] is “submicromolar activity”.

The IC50 is the concentration at which inhibition is half-maximal. In the case of `Cc1c(C(=O)N[C@H](C(=O)OCc2ccccc2)C(C)C)ccc2c1B(O)OC2` [AN11735], the IC50 in data set [2] (read-out: in vitro activity against T. cruzi (IC50)) was less than 10 nM.

With `Cc1c(C(=O)N[C@H](C(=O)OCc2ccc(F)cc2)C(C)C)ccc2c1B(O)OC2` [AN11736], the “effect of CPSF3 overexpression on killing” value in the data set with CPSF3 is recorded as “induced resistance to killing”.

Consider `Cc1c(C(=O)N[C@H](C(=O)OCc2ccc(S(C)(=O)=O)cc2)C(C)C)ccc2c1B(O)OC2` [AN14561], for which the “in vitro activity against T. cruzi” value in data set [2] was “significantly less potent”.

As for `Cc1c(C(=O)N[C@H](C(=O)O)C(C)C)ccc2c1B(O)OC2` [AN14667], the “reduced activity on extracellular amastigotes” value in data set [3] is listed as approximately 1000 fold. Moreover, the “reduced activity on intracellular amastigotes” value in [2] (relative to parent ester (FIG. 2A)) is recorded as approximately 1000 fold.

For the compound `Cc1c(C(=O)N[C@H](C(=O)OCc2ccc(F)cc2)C(C)(C)O)ccc2c1B(O)OC2` [AN14817], the “dose proportionality of exposure” value in [4] is given as “non-dose proportional exposure”. Further, the “affinity for a broad array of mammalian enzymes, receptors and ion channels” value in [5] is on record as “little to no affinity”. Further, in “Standard Ames study”, the “genotoxicity, Ames” value was “non-genotoxic”. Also, the “inhibition of representative cytochrome P450 enzymes” value with cytochrome P450 enzymes is given as “did not demonstrate significant inhibition”.

With `Cc1c(C(=O)NC(C(=O)OCCN2CCOCC2)C(C)C)ccc2c1B(O)OC2` (centres unmarked) [AN15129], the “in vitro activity against T. cruzi” value in data set [2] is “less active than neutral compounds”.

Take `O=C(Cn1ccnc1[N+](=O)[O-])NCc1ccccc1` [benznidazole]: the “failures in treatment trials” value in the data set on T. cruzi [6] is more than 60%. Moreover, the mice systemically parasite-positive in data set [7] (IFNγ KO mice, within 4 weeks of termination of prophylaxis) was 4 of 5. Moreover, in data set [7] (WT mice), the “overall effect of prophylaxis regimen” value is listed as “prevented or truncated an infection in most cases”. Moreover, the luciferase signal result in [7] (WT mice, day 14 post-exposure or beyond) is reported as “none of the mice in the BNZ-treated WT group had a detectable luciferase signal above background”; in [7] (some IFNγ KO mice, day 14 post-exposure (not at 12 weeks)) it was “low level signal”. Further, the “mice negative for T. cruzi DNA (qPCR of skeletal muscle, heart, gut)” value in data set [7] (WT mice, week 33) is “at least 3 of the 5”. Further, the “fraction of CD127+ cells in the TSKb20-specific CD8+ T cell population” value in data set [7] (mice under prophylaxis vs no prophylaxis, through 21st week) is listed as “substantially higher fraction of CD127+ cells”. In addition, in the data set with T. cruzi (Brazil strain) (mice, weekly or twice weekly high dose (2.5-5× normal daily dose)), the “cure of established infections” value is listed as “could cure established infections”. For the same compound, the “generation of cure with 20 days of treatment” value in the data set with T. cruzi (Brazil strain) (mice) is listed as “only partially effective”. The “blood PCR” value in the data set on T. cruzi [8] (setting [9]) was “PCR negative”. The serology entry in the data set on T. cruzi [8] (setting [9]) is listed as “seronegative”. In addition, the “impact of prophylaxis on new infections” value in the data set on T. cruzi [8] (dogs) was “no impact on the incidence of new infections”; in the data set on T. cruzi [8] (dogs, listed as BNZ), “no impact on the number of new infections”. In the data set on T. cruzi [8] (dogs, prophylaxis group, twice weekly not less than 10 mg/kg), this compound came in with a new infections of 26.5%.

For `CC[C@@H]([C@H](C)O)n1ncn(-c2ccc(N3CCN(c4ccc(OC[C@@H]5CO[C@@](Cn6cncn6)(c6ccc(F)cc6F)C5)cc4)CC3)cc2)c1=O` [posaconazole], the “failures in treatment trials” value in the data set on T. cruzi [6] was 100%.
